Drawing on patent US20260317344A1, “EGFR INHIBITORS FOR TREATING DISEASE” (BLOSSOMHILL THERAPEUTICS, INC., priority 2023, published 2026), this text covers IC50 for four compounds.

SMILES strings stand for the structures. pIC50: −log10 of the molar value.

The target in experiment [1] is EGFR (L858R) (Homo sapiens, UniProt P00533, L858R). The experiment can be described thus: HotSpot radiometric kinase assay, inhibition of EGFR L858R mutant. It counts as biochemical. The conditions noted are these: 33P ATP, room temperature, 120 m. In a few lines: (§1)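 Radiometric filter-binding format: ATP plus 33P-ATP ([…]) was added about 20 min after compound to kinase and substrate in HEPES pH 7.5 buffer with Mg2+, EGTA, Brij35, BSA, vanadate, DTT and 1% DMSO. After 120 min at room temperature, reactions were spotted on P81 paper and washed in phosphoric acid; IC50 values fitted.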

Experiment [2] concerns the target T1, pEGFR, A431 cells (wildtype EGFR) (Homo sapiens, UniProt P00533).
T1 construct: pEGFR (Tyr1068) TR-FRET
In words: Cellular EGFR phosphorylation assay (LANCE Ultra TR-FRET) in A431 cells. The following applies: 4 hours at 37° C., 40 ng/mL EGF for the final 10 minutes, read-out: A431 pEGFR IC50. The experiment is classed as cell-based. In a few lines: (§2)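 pEGFR Tyr1068 TR-FRET readout, lysates after 4 h compound exposure (37 °C, 5% CO2); 9-dose 3-fold series. A431 only: EGF 40 ng/mL for last 10 min. IC50 from curve fit.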
On the technique in general: TR-FRET usually uses a lanthanide donor and a delayed reading to cut background.

For experiment [3], the target named is EGFR (L858R/T790M/C797S) (Homo sapiens, UniProt P00533, C797S/L858R/T790M). The experiment can be described thus: HotSpot radiometric kinase assay, inhibition of EGFR L858R/T790M/C797S mutant. The experiment is classed as biochemical. The following applies: 33P ATP, room temperature, 120 m. In a few lines: (§3)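 Kinase/substrate pairs in 20 mM HEPES pH 7.5, 10 mM MgCl2, 1 mM EGTA, 0.02% Brij35, 0.02 mg/ml BSA, 0.1 mM Na3VO4, 2 mM DTT, 1% DMSO, preincubated ~20 min with compound. Reaction started with ATP/33P-ATP ([…]), run 120 min at room temperature; phosphorylation read by P81 filter binding, IC50 from curve fits.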

Experiment [4] addresses EGFR (D770_N771insNPG) (Homo sapiens, UniProt P00533, INS770NPG). The experiment can be described thus: HotSpot radiometric kinase assay, inhibition of EGFR (D770_N771insNPG) mutant. The experiment is classed as biochemical. The conditions noted are these: 33P ATP, room temperature, 120 m. In a few lines: as §3
Experiment [5] deals with T2, pEGFR, NCI-H1975 cells (L858R/T790M EGFR) (Homo sapiens, UniProt P00533, L858R/T790M).
T2 construct: pEGFR (Tyr1068) TR-FRET
The experiment can be described thus: Cellular EGFR phosphorylation assay (LANCE Ultra TR-FRET) in NCI-H1975 cells. It counts as cell-based. The conditions noted are these: 4 hours at 37° C., read-out: H1975 pEGFR IC50. In a few lines:
as §2

Experiment [6] deals with T3, pEGFR, PC-9 cells (d746-750 EGFR) (Homo sapiens, UniProt P00533, DEL746-750).
T3 construct: pEGFR (Tyr1068) TR-FRET
The experiment can be described thus: Cellular EGFR phosphorylation assay (LANCE Ultra TR-FRET) in PC-9 cells. The experiment is classed as cell-based. The conditions noted are these: 4 hours at 37° C., read-out: PC-9 pEGFR IC50. Summed up:
as §2

The subject of experiment [7] is NCI-H1975 cells. The experiment can be described thus: 5-Day CellTiter Glo (CTG) cell proliferation assay, NCI-H1975. It counts as cell-based. The following applies: Homo sapiens; NCI-H1975 cells (L858R/T790M EGFR), 5-day CTG proliferation, 120 hours; read-out: H1975 IC50. Summed up:
(§4)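 Luminescent ATP signal (CellTiter-Glo 2.0) after 120 hours of compound exposure gave IC50 values. PC-9 and HCC827 harbour EGFR d746-750; NCI-H1975 harbours L858R/T790M.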
A general note: Cellular ATP, detected with luciferase, serves as a proxy for viable cell number.

The subject of experiment [8] is BaF3 cells with engineered EGFR L858R/T790M/C797S. In words: 3-Day CellTiter Glo (CTG) cell proliferation assay, BaF3 EGFR L858R/T790M/C797S. The experiment is classed as cell-based. The following applies: Mus musculus, 3-day CTG proliferation, 72 hours. Summed up:
(§5)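 Luminescent ATP read-out (CellTiter-Glo 2.0) after 72 h compound exposure gives IC50 values. BaF3 transgenic cells, one thousand per well, received a nine-dose series and were kept at 37 °C under 5% CO2.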

In experiment [9] the test system is HCC827 cells. In words: 5-Day CellTiter Glo (CTG) cell proliferation assay, HCC827. It counts as cell-based. The following applies: Homo sapiens; HCC827 cells (d746-750 EGFR), 5-day CTG proliferation, 120 hours; read-out: HCC827 IC50. Summed up: as §4
Experiment [10] deals with EGFR WT (Homo sapiens, UniProt P00533). The experiment can be described thus: HotSpot radiometric kinase assay, inhibition of EGFR WT. The following applies: 33P ATP, room temperature, 120 m. It counts as biochemical. Summed up: as §1
Experiment [11] concerns BaF3 cells with engineered EGFR L858R/C797S. The experiment can be described thus: 3-Day CellTiter Glo (CTG) cell proliferation assay, BaF3 EGFR L858R/C797S. It counts as cell-based. The following applies: Mus musculus, 3-day CTG proliferation, 72 hours. In a few lines:
as §5

The subject of experiment [12] is PC-9 cells. In words: 5-Day CellTiter Glo (CTG) cell proliferation assay, PC-9. The conditions noted are these: Homo sapiens; PC-9 cells (d746-750 EGFR), 5-day CTG proliferation, 120 hours; read-out: PC-9 IC50. The experiment is classed as cell-based. Summed up:
as §4

Experiment [13] deals with BaF3 cells with engineered EGFR d746-750/T790M. In words: 3-Day CellTiter Glo (CTG) cell proliferation assay, BaF3 EGFR d746-750/T790M. It counts as cell-based. The conditions noted are these: Mus musculus; BaF3 EGFR d746-750/T790M cells, 3-day CTG proliferation, 72 hours. In a few lines:
as §5

Experiment [14] addresses EGFR (L858R/T790M) (Homo sapiens, UniProt P00533, L858R/T790M). In words: HotSpot radiometric kinase assay, inhibition of EGFR L858R/T790M mutant. It counts as biochemical. The conditions noted are these: 33P ATP, room temperature, 120 m. Summed up:
as §3

In experiment [15] the target is EGFR (D746-750/C797S) (Homo sapiens, UniProt P00533, C797S/DEL746-750). The experiment can be described thus: HotSpot radiometric kinase assay, inhibition of EGFR 746-750/C797S mutant. The experiment is classed as biochemical. The conditions noted are these: 33P ATP, room temperature, 120 m. In a few lines:
as §3

Experiment [16] concerns the target EGFR (D746-750) (Homo sapiens, UniProt P00533, DEL746-750). The experiment can be described thus: HotSpot radiometric kinase assay, inhibition of EGFR 746-750 mutant. The experiment is classed as biochemical. The following applies: 33P ATP, room temperature, 120 m. In a few lines: as §3

Chain of EGFR (D746-750) (P00533 with tags, fused parts or gaps DEL746-750): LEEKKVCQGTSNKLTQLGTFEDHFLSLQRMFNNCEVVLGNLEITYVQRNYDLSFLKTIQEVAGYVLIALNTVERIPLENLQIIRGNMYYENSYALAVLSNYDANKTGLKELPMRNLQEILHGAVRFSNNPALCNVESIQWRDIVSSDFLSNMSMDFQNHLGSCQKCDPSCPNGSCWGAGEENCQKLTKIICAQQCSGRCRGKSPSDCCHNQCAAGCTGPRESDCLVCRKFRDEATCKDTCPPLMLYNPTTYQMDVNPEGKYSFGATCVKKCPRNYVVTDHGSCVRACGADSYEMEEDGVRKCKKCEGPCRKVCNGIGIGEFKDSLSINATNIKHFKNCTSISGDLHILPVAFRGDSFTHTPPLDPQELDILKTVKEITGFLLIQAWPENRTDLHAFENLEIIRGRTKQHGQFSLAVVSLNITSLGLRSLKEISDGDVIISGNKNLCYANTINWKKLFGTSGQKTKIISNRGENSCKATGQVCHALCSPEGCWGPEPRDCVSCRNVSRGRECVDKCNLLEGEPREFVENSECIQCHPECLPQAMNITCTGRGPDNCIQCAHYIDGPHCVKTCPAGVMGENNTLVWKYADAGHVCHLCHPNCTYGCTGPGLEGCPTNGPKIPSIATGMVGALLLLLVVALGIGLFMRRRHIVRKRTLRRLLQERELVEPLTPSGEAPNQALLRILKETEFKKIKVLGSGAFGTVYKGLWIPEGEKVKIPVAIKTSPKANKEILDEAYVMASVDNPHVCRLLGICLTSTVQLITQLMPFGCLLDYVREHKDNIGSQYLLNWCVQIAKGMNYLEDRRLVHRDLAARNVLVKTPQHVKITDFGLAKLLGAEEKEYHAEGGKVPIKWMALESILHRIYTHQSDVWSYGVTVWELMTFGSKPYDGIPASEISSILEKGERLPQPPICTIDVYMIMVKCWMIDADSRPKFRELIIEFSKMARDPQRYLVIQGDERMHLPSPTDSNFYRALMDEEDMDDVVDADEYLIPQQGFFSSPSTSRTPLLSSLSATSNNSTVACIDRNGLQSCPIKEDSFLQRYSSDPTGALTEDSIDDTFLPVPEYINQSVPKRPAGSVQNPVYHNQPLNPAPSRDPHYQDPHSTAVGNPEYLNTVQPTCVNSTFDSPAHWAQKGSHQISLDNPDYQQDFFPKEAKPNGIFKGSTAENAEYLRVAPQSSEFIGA
T3 sequence (P00533 with tags, fused parts or gaps DEL746-750): as above
Chain of EGFR (L858R/T790M/C797S) (P00533 25-1210 T790M/C797S/L858R): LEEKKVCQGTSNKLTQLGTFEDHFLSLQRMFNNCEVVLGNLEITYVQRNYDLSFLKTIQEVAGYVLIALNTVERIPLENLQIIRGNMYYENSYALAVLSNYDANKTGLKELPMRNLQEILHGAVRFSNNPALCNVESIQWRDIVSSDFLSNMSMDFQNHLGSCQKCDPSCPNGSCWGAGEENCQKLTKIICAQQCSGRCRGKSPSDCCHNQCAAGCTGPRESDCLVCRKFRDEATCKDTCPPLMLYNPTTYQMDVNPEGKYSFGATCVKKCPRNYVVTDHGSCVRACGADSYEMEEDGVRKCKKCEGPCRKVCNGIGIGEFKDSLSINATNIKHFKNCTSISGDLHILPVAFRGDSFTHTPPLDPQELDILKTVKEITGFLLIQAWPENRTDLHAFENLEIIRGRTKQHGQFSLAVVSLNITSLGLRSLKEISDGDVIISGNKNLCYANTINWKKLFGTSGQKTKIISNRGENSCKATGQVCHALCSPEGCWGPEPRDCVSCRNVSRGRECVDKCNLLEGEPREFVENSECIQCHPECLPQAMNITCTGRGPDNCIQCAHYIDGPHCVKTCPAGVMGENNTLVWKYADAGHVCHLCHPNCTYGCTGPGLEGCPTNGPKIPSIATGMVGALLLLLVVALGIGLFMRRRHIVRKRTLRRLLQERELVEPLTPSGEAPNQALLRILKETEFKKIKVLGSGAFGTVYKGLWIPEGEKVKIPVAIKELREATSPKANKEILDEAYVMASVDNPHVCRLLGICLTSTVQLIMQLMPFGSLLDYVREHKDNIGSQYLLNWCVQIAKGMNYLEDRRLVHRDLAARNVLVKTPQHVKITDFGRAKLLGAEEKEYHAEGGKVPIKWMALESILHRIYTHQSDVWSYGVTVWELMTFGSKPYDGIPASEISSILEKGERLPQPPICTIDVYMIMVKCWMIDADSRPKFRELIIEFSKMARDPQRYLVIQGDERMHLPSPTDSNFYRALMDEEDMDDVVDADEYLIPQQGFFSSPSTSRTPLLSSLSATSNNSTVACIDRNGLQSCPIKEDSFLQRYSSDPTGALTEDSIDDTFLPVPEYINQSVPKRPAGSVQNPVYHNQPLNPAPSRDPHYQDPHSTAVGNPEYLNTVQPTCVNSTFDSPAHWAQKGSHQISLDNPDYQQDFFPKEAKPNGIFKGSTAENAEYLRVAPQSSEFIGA
Chain of EGFR (D746-750/C797S) (P00533 with tags, fused parts or gaps DEL746-750/C797S): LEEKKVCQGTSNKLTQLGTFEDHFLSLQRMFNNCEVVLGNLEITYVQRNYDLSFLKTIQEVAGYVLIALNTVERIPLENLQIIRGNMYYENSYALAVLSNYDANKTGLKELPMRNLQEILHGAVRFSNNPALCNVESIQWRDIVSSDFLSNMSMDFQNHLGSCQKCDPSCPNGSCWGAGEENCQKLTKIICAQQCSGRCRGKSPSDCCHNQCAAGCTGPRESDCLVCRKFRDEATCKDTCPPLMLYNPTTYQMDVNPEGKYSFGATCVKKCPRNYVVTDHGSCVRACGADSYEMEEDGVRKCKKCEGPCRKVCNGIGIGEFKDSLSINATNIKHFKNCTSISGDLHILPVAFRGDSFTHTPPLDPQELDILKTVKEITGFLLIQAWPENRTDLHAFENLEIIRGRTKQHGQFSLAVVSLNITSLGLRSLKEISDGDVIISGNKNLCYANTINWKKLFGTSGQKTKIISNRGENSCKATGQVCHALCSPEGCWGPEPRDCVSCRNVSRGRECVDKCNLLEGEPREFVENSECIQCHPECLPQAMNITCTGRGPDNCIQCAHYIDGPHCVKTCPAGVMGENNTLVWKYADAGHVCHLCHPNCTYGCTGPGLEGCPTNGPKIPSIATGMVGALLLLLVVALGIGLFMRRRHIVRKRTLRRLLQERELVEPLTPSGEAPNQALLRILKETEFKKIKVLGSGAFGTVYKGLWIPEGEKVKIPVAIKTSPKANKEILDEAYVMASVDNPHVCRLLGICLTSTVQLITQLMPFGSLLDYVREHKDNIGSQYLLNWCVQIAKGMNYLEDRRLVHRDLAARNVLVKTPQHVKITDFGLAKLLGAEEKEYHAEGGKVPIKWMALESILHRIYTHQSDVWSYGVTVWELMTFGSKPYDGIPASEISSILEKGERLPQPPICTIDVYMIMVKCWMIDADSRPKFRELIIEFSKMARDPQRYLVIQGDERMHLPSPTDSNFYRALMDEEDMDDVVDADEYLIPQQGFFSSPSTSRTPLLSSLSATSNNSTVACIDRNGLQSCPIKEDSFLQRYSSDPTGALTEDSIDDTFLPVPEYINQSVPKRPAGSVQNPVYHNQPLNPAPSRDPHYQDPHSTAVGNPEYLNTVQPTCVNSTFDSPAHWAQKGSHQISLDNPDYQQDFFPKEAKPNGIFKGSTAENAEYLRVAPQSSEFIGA

Broadly, the pIC50 is the negative decadic logarithm of the IC50, by convention in mol/L. Regarding `CCOc1nn(CCO)c2c1/C=C/c1n[nH]c3cnc(cc13)-c1c(C)nn(C)c1O[C@@H](C)CN(C(C)C)C2` [Ex. 8, 2-[(10S,17E)-16-ethoxy-6,8,10-trimethyl-12-(propan-2-yl)-2,8,10,11,12,13-hexahydro-14H-5,3-(azenometheno)tripyrazolo[3,4-f:3′,4′-j:4″,3″-n][1,4]oxazacyclopentadecin-14-yl]ethan-1-ol], the pIC50 in experiment [1] was 9.46; in experiment [2], 8.09; in experiment [3], 9.32; in [4], 9.49; in experiment [5], 8.81; in experiment [6], 8.98. In addition, the pIC50 in experiment [7] is 9.04; in experiment [8], 9.09; in experiment [9] it was 9.96; in [10] it was 9.82; in [11], 10.00; in [12] it was 9.44. The pIC50 in experiment [13] is 9.36; in experiment [14], 9.15; in [15], 9.43; in [16] it was 9.26.

Turning to `CCOc1nn(CCO)c2c1/C=C/c1n[nH]c3cnc(cc13)-c1c(C)nn(C)c1O[C@@H](C)CN(CC)C2` [Ex. 15, 2-[(10S,17E)-16-ethoxy-12-ethyl-6,8,10-trimethyl-2,8,10,11,12,13-hexahydro-14H-5,3-(azenometheno)tripyrazolo[3,4-f:3′,4′-j:4″,3″-n][1,4]oxazacyclopentadecin-14-yl]ethan-1-ol], the pIC50 in experiment [1] was 9.57; in experiment [2] it was 8.13; in experiment [3], 9.43; in experiment [4] it was 9.66; in experiment [5], 8.73; in [6], 8.98. Besides, the pIC50 in [7] is 9.12; in [8], 9.10; in [9], 9.74; in experiment [10], 9.92; in [11], 10.22; in [12], 9.48. The pIC50 in [13] is 9.24; in experiment [14], 9.43; in experiment [15] it was 9.62; in [16], 9.22.

Take `CCN1Cc2c(c(C)nn2CCO)/C=C/c2n[nH]c3cnc(cc23)-c2c(C)nn(C)c2O[C@H](C)C1` [Ex. 14, 2-[(10R,17E)-12-ethyl-6,8,10,16-tetramethyl-2,8,10,11,12,13-hexahydro-14H-5,3-(azenometheno)tripyrazolo[3,4-f:3′,4′-j:4″,3″-n][1,4]oxazacyclopentadecin-14-yl]ethan-1-ol]: the pIC50 in [1] was 9.60; in [2], 7.35; in [3], 9.66; in [4] it was 9.82; in experiment [5], 8.12; in experiment [6] it was 7.93. Also, the pIC50 in experiment [7] was 6.96; in experiment [8], 8.28; in [9] it was 8.54; in experiment [10], 10.10; in experiment [11] it was 8.91; in [12], 7.26. Besides, the pIC50 in experiment [13] is 7.65; in experiment [14], 9.64; in experiment [15], 9.70; in [16], 9.33.

`CCOc1nn(CCO)c2c1/C=C/c1n[nH]c3c(C)nc(cc13)-c1cnn(C)c1O[C@@H](C)CN(C)C2` [Ex. 29, 2-[(10S,17E)-16-ethoxy-8,10,12,20-tetramethyl-2,8,10,11,12,13-hexahydro-14H-5,3-(azenometheno)tripyrazolo[3,4-f:3′,4′-j:4″,3″-30n][1,4]oxazacyclopentadecin-14-yl]ethan-1-ol]: the pIC50 was 9.14 in [1]; 7.86 in experiment [2]; 9.52 in experiment [3]; 9.54 in experiment [4]; 9.03 in [5]; 8.44 in experiment [6]. For the same compound, the pIC50 was 8.98 in [7]; 9.13 in experiment [8]; 8.95 in [9]; 9.66 in experiment [10]; 9.77 in [11]; 7.94 in [12]. The pIC50 is 9.05 in [13], 9.52 in experiment [14], 9.19 in experiment [15] and 9.70 in [16].
